Here are results for 1 compound from patent US10160764B2 (priority 2016, dated 2018).

The test has as its target influenza virus minigenome (PB2, PB1, PA, NP, Luciferase reporter), Hubei (Influenza A virus, UniProt A0A1L2FNK2). Type of test: cell-based. The conditions noted are these: read-out: RNP_Hubei EC50.

By EC50 is commonly meant the concentration needed to bring the measured effect to its halfway point.

On to `O=C1c2c(O)c(=O)cnn2[C@@H]([C@@H](c2cccc(F)c2)c2ccc(F)c(F)c2)[C@H]2CCCN12` [Example 34, (9aR,10S)-10-((S)-(3,4-difluorophenyl)(3-fluorophenyl)methyl)-4-hydroxy-8,9,9a,10-tetrahydro-7H-pyrrolo[1′,2′:4,5]pyrazino[1,2-b]pyridazine-3,5-dione], for which the EC50 is 0.043 µM.
